In the CheMixHub viscosity set:

Experiment: xn = mol fraction of the nth substance listed

CC(=O)OCCC(C)C + Cc1ccccc1
viscosity [mPa·s], 101 kPa
Details	298.15 K	308.15 K
x1 = 0.0474	0.555	0.505
x1 = 0.1513	0.567	0.522
x1 = 0.2512	0.581	0.54
x1 = 0.3494	0.598	0.56
x1 = 0.4458	0.616	0.581
x1 = 0.4978	0.627	0.593
x1 = 0.5497	0.639	0.606
x1 = 0.649	0.664	0.632
x1 = 0.7499	0.692	0.661
x1 = 0.855	0.726	0.695
x1 = 0.9448	0.759	0.726

CC(=O)OCCC(C)C + Cc1ccccc1C
viscosity [mPa·s], 101 kPa
Details	298.15 K	308.15 K
x1 = 0.045	0.754	0.657
x1 = 0.1503	0.745	0.659
x1 = 0.2526	0.738	0.66
x1 = 0.3475	0.735	0.664
x1 = 0.4468	0.735	0.67
x1 = 0.4819	0.735	0.673
x1 = 0.5459	0.737	0.679
x1 = 0.649	0.741	0.69
x1 = 0.7465	0.749	0.702
x1 = 0.8524	0.76	0.719
x1 = 0.9401	0.772	0.735

CC(=O)OCCC(C)C + ClC(Cl)(Cl)Cl
303.15 K, 101.3 kPa
Details	viscosity [mPa·s]
x1 = 0.1037	0.8143
x1 = 0.1985	0.8011
x1 = 0.302	0.7904
x1 = 0.4018	0.7782
x1 = 0.5027	0.7656
x1 = 0.603	0.7549
x1 = 0.7015	0.7451
x1 = 0.7985	0.7325
x1 = 0.9013	0.7155

CC(=O)OCCC(C)C + ClC(Cl)Cl
303.15 K, 101.3 kPa
Details	viscosity [mPa·s]
x1 = 0.1037	0.5821
x1 = 0.2076	0.6427
x1 = 0.301	0.6846
x1 = 0.3983	0.7145
x1 = 0.5044	0.7309
x1 = 0.6009	0.7377
x1 = 0.6966	0.7338
x1 = 0.8058	0.7252
x1 = 0.8911	0.7143

CC(=O)OCCC(C)C + Clc1ccccc1
viscosity [mPa·s], 101 kPa
Details	298.15 K	303.15 K	308.15 K	313.15 K
x1 = 0.0458	0.75	–	0.678	–
x1 = 0.0705	–	0.718	–	0.634
x1 = 0.1467	–	0.729	–	0.643
x1 = 0.1506	0.741	–	0.676	–
x1 = 0.2271	–	0.74	–	0.654
x1 = 0.251	0.735	–	0.677	–
x1 = 0.3141	–	0.751	–	0.662
x1 = 0.3515	0.732	–	0.681	–
x1 = 0.4073	–	0.758	–	0.669
x1 = 0.4513	0.731	–	0.684	–
x1 = 0.4998	0.732	–	0.687	–
x1 = 0.5006	–	0.767	–	0.675
x1 = 0.5511	0.734	–	0.691	–
x1 = 0.6085	–	0.768	–	0.674
x1 = 0.6517	0.739	–	0.699	–
x1 = 0.728	–	0.766	–	0.671
x1 = 0.7519	0.747	–	0.71	–
x1 = 0.8507	0.758	–	0.723	–
x1 = 0.8573	–	0.758	–	0.661
x1 = 0.9448	0.772	–	0.737	–

CCOP(OCC)OCC + N#Cc1ccccc1
298.15 K, 101 kPa
Details	viscosity [mPa·s]
x1 = 0.2	1.089
x1 = 0.4	0.963
x1 = 0.6	0.848
x1 = 0.8	0.781

CC(=O)Nc1ccccc1 + Nc1ccccc1
viscosity [mPa·s], 101.3 kPa
Details	298.15 K	323.15 K
x1 = 0.108	46.7	23.6
x1 = 0.195	113.4	42.5

CC(=O)O.OCCNCCO + O
viscosity [mPa·s], 100 kPa
Details	x1 = 0.0126	x2 = 0.1586	x2 = 0.2897	x2 = 0.4528	x2 = 0.5293	x2 = 0.6932	x2 = 0.8573	x2 = 0.9194	x2 = 0.9549
293.15 K	1.37	3625	2208	1042	658.3	162.6	19.25	6.362	3.027
303.15 K	1.099	1492	946.1	473.9	310.7	87.19	12.67	4.584	2.301
313.15 K	0.9188	686.5	452	239.3	162.4	51.05	8.836	3.442	1.818
323.15 K	0.7821	346.1	236.3	131.8	92.22	32.12	6.455	2.69	1.484

CC(C)COCCO + O
298.15 K, 101 kPa
Details	viscosity [mPa·s]
x1 = 0.0037	0.9
x1 = 0.016	1.2
x1 = 0.0469	2.4
x1 = 0.0611	2.7
x1 = 0.11	3.65
x1 = 0.177	4.27
x1 = 0.263	4.4
x1 = 0.764	3.7

CCCC(=O)[O-].[NH3+]CCO + O
viscosity [mPa·s], 101 kPa
Details	x1 = 0.0063	x1 = 0.0132	x2 = 0.8927	x2 = 0.9254	x2 = 0.9508	x2 = 0.9707	x2 = 0.9793
293.15 K	1.38	1.662	9.498	5.73	3.702	2.46	1.98
298.15 K	1.248	1.476	7.89	4.836	3.21	2.145	1.776
303.15 K	1.104	1.32	6.6	4.182	2.814	1.878	1.59
